Laboratory results taken from patent US20200179428A1, “CYCLIC PHOSPHATE SUBSTITUTED NUCLEOSIDE DERIVATIVES AND METHODS OF USE THEREOF FOR THE TREATMENT OF VIRAL DISEASES” (priority 2016, published 2020).

Tested on: replicon cells (1b-Con1)
Test: Replicon activity assay (replicon RNA level by real-time RT-PCR, Taqman)
Format: cell-based
Settings: HCV replicon genotype 1b; read-out: EC50 (1b) Range
Summary of the method: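 HCV 1b-Con1 replicon cells treated 3 days with 10-point twofold serial dilutions in triplicate (0.5% DMSO, 10% FBS); replicon RNA quantified by Taqman real-time RT-PCR normalised to GAPDH, EC50 derived. Cytotoxicity by MTS read-out at day 3 on identically treated cells.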

SMILES	EC50 [µM]
C#C[C@@]1(O)[C@@H]2OP(=O)(OCC[C@H](C)C(=O)OC(C)C)OC[C@H]2O[C@H]1n1ccc(=O)[nH]c1=O (single isomer, unassigned) [Compound 7A2]	0.25 to 1
C#C[C@]1(C)[C@@H]2OP(=O)(OCCC(C(=O)OC(C)C)C(=O)OC(C)C)OC[C@H]2O[C@H]1n1ccc(=O)[nH]c1=O (single isomer, unassigned) [Compound 36A]	0.25 to 1

Same assay, conditions: Hepatitis C virus, HCV replicon genotype 1b; read-out: EC50 (1b) Range

SMILES	EC50 [µM]
CC(C)OC(=O)C(C)CCOP1(=O)OC[C@H]2O[C@@H](n3ccc(=O)[nH]c3=O)[C@](C)(Cl)[C@@H]2O1 (stereo partly shown) [Compound 39A]	≤ 0.25
CC(C)OC(=O)C(C)(C)CO[P@]1(=O)OC[C@H]2O[C@@H](n3ccc(=O)[nH]c3=O)[C@](C)(N)[C@@H]2O1 [Compound 15B]	> 10
CC(C)OC(=O)C(CCOP1(=O)OC[C@H]2O[C@@H](n3ccc(=O)[nH]c3=O)[C@](C)(Cl)[C@@H]2O1)C(=O)OC(C)C (stereo partly shown) [Compound 38A]	≤ 0.25
C[C@@]1(N)[C@@H]2O[P@@](=O)(OCCC3CCOC3=O)OC[C@H]2O[C@H]1n1ccc(=O)[nH]c1=O (stereo partly shown) [Compound 46A]	> 10
C#C[C@]1(C)[C@@H]2OP(=O)(OCCC(C)C(=O)OC3CCCC3)OC[C@H]2O[C@H]1n1ccc(=O)[nH]c1=O (stereo partly shown) [Compound 2A]	1 to 10
C#C[C@]1(C)[C@@H]2O[P@](=O)(OCCC(C)(C)C(=O)OC(C)C)OC[C@H]2O[C@H]1n1ccc(=O)[nH]c1=O [Compound 20B]	> 10
CC(CCO[P@@]1(=O)OC[C@H]2O[C@@H](n3ccc(=O)[nH]c3=O)[C@](C)(N)[C@@H]2O1)C(=O)OC1CCCCC1 (stereo partly shown) [Compound 78A]	> 10
CC(C)OC(=O)[C@@H](C)CCO[P@@]1(=O)OC[C@H]2O[C@@H](n3cnc4c(N)ncnc43)[C@](C)(C#N)[C@@H]2O1 [Compound 71A]	> 10
CO[C@H](CCOP1(=O)OC[C@H]2O[C@@H](n3ccc(=O)[nH]c3=O)[C@](C)(Cl)[C@@H]2O1)C(=O)OC(C)C (stereo partly shown) [Compound 37A]	0.25 to 1
CCCCCOC(=O)C(C)CCO[P@@]1(=O)OC[C@H]2O[C@@H](n3ccc(=O)[nH]c3=O)[C@](C)(N)[C@@H]2O1 (stereo partly shown) [Compound 79A]	1 to 10
C#C[C@@]1(O)[C@@H]2OP(=O)(OCCC(C)C(=O)OC(C)C)OC[C@H]2O[C@H]1n1ccc(=O)[nH]c1=O (stereo partly shown) [Compound 7A]	0.25 to 1
C#C[C@]1(C)[C@@H]2O[P@](=O)(OC[C@H](F)CC(=O)OC(C)C)OC[C@H]2O[C@H]1n1ccc(=O)[nH]c1=O [Compound 66B]	0.25 to 1
CC(C)OC(=O)CC(C)(C)CO[P@]1(=O)OC[C@H]2O[C@@H](n3ccc(=O)[nH]c3=O)[C@](C)(N)[C@@H]2O1 [Compound 17B]	> 10
C#C[C@@]1(O)[C@@H]2OP(=O)(OCC[C@@H](OC)C(=O)OC(C)C)OC[C@H]2O[C@H]1n1ccc(=O)[nH]c1=O (stereo partly shown) [Compound 76]	≤ 0.25
C#C[C@@]1(OC(=O)CCC)[C@@H]2O[P@@](=O)(OCC[C@@H](C)C(=O)OC(C)C)OC[C@H]2O[C@H]1n1ccc(=O)[nH]c1=O [Compound 83A1]	≤ 0.25
CCCCCOC(=O)C(C)CCO[P@]1(=O)OC[C@H]2O[C@@H](n3ccc(=O)[nH]c3=O)[C@](C)(N)[C@@H]2O1 (stereo partly shown) [Compound 79B]	1 to 10
C#C[C@]1(C)[C@@H]2O[P@@](=O)(OCC(C)CCC(=O)OC(C)C)OC[C@H]2O[C@H]1n1ccc(=O)[nH]c1=O (stereo partly shown) [Compound 22A]	> 10
COC(=O)N[C@H](CO[P@]1(=O)OC[C@H]2O[C@@H](n3ccc(=O)[nH]c3=O)[C@](C)(C#N)[C@@H]2O1)C(=O)OC(C)C [Compound 41B]	> 10
C[C@@]1(N)[C@@H]2O[P@](=O)(OCCC3(C(=O)OC4CCCC4)CC3)OC[C@H]2O[C@H]1n1ccc(=O)[nH]c1=O [Compound 26B]	> 10
CC(C)OC(=O)C(CCO[P@@]1(=O)OC[C@H]2O[C@@H](n3cnc4c(N)ncnc43)[C@](C)(Cl)[C@@H]2O1)C(=O)OC(C)C [Compound 70A]	0.25 to 1
CC(=O)O[C@H](C(=O)OC(C)C)[C@@H](COP1(=O)OC[C@H]2O[C@@H](n3ccc(=O)[nH]c3=O)[C@](C)(N)[C@@H]2O1)OC(C)=O (stereo partly shown) [Compound 53B]	> 10
CC(C)OC(=O)C(C)(C)CO[P@@]1(=O)OC[C@H]2O[C@@H](n3ccc(=O)[nH]c3=O)[C@](C)(N)[C@@H]2O1 [Compound 15A]	> 10
C#C[C@@]1(O)[C@@H]2OP(=O)(OCCC(C)C(=O)OC3CCCC3)OC[C@H]2O[C@H]1n1ccc(=O)[nH]c1=O (single isomer, unassigned) [Compound 8A]	0.25 to 1
CC(C)OC(=O)C(C)CCOP1(=O)OC[C@H]2O[C@@H](n3ccc(=O)[nH]c3=O)[C@](C)(N)[C@@H]2O1 (stereo partly shown) [Compound 10A]	> 10
C#C[C@]1(C)[C@@H]2O[P@](=O)(OCC[C@H](OC(C)=O)C(=O)OC(C)C)OC[C@H]2O[C@H]1n1ccc(=O)[nH]c1=O [Compound 51B]	≤ 0.25
CC(C)OC(=O)[C@@H](C)CCO[P@]1(=O)OC[C@H]2O[C@@H](n3cnc4c(N)ncnc43)[C@](C)(N)[C@@H]2O1 [Compound 73B]	1 to 10
C#C[C@]1(C)[C@@H]2O[P@](=O)(OCC[C@H](C)C(=O)OC(C)C)OC[C@H]2O[C@H]1n1cnc2c(N)ncnc21 [Compound 72B]	0.25 to 1
CO[C@@H](CO[P@]1(=O)OC[C@H]2O[C@@H](n3ccc(=O)[nH]c3=O)[C@](C)(N)[C@@H]2O1)CC(=O)OC(C)C [Compound 63B]	> 10
CC(C)OC(=O)C(C)(C)CO[P@]1(=O)OC[C@H]2O[C@@H](n3ccc(=O)[nH]c3=O)[C@](C)(C#N)[C@@H]2O1 [Compound 16B]	> 10
C#C[C@]1(C)[C@@H]2O[P@@](=O)(OCCC(CC)C(=O)OC3CCCC3)OC[C@H]2O[C@H]1n1ccc(=O)[nH]c1=O (stereo partly shown) [Compound 30A]	> 10

Tested on: not listed separately
Test: Cytotoxicity MTS assay (CellTiter 96 Aqueous One Solution) in replicon cells
Format: cell-based
Settings: EDU; read-out: CC50 (EDU) Range

SMILES	CC50 [µM]
C#C[C@@]1(O)[C@@H]2OP(=O)(OCCC(C)C(=O)OC(C)C)OC[C@H]2O[C@H]1n1ccc(=O)[nH]c1=O (stereo partly shown) [Compound 7A]	> 50

Same assay, conditions: HCV replicon cells (1b-Con1); EDU; read-out: CC50 (EDU) Range

SMILES	CC50 at 3 days [µM]
CC(C)OC(=O)C(C)CCOP1(=O)OC[C@H]2O[C@@H](n3ccc(=O)[nH]c3=O)[C@](C)(Cl)[C@@H]2O1 (stereo partly shown) [Compound 39A]	> 50
CC(C)OC(=O)C(C)(C)CO[P@]1(=O)OC[C@H]2O[C@@H](n3ccc(=O)[nH]c3=O)[C@](C)(N)[C@@H]2O1 [Compound 15B]	> 50
CC(C)OC(=O)C(CCOP1(=O)OC[C@H]2O[C@@H](n3ccc(=O)[nH]c3=O)[C@](C)(Cl)[C@@H]2O1)C(=O)OC(C)C (stereo partly shown) [Compound 38A]	> 50
C[C@@]1(N)[C@@H]2O[P@@](=O)(OCCC3CCOC3=O)OC[C@H]2O[C@H]1n1ccc(=O)[nH]c1=O (stereo partly shown) [Compound 46A]	> 50
C#C[C@]1(C)[C@@H]2OP(=O)(OCCC(C)C(=O)OC3CCCC3)OC[C@H]2O[C@H]1n1ccc(=O)[nH]c1=O (stereo partly shown) [Compound 2A]	> 50
C#C[C@]1(C)[C@@H]2O[P@](=O)(OCCC(C)(C)C(=O)OC(C)C)OC[C@H]2O[C@H]1n1ccc(=O)[nH]c1=O [Compound 20B]	> 50
CC(CCO[P@@]1(=O)OC[C@H]2O[C@@H](n3ccc(=O)[nH]c3=O)[C@](C)(N)[C@@H]2O1)C(=O)OC1CCCCC1 (stereo partly shown) [Compound 78A]	> 50
CC(C)OC(=O)[C@@H](C)CCO[P@@]1(=O)OC[C@H]2O[C@@H](n3cnc4c(N)ncnc43)[C@](C)(C#N)[C@@H]2O1 [Compound 71A]	> 50
CO[C@H](CCOP1(=O)OC[C@H]2O[C@@H](n3ccc(=O)[nH]c3=O)[C@](C)(Cl)[C@@H]2O1)C(=O)OC(C)C (stereo partly shown) [Compound 37A]	> 50
CCCCCOC(=O)C(C)CCO[P@@]1(=O)OC[C@H]2O[C@@H](n3ccc(=O)[nH]c3=O)[C@](C)(N)[C@@H]2O1 (stereo partly shown) [Compound 79A]	> 50
C#C[C@]1(C)[C@@H]2O[P@](=O)(OC[C@H](F)CC(=O)OC(C)C)OC[C@H]2O[C@H]1n1ccc(=O)[nH]c1=O [Compound 66B]	> 50
CC(C)OC(=O)CC(C)(C)CO[P@]1(=O)OC[C@H]2O[C@@H](n3ccc(=O)[nH]c3=O)[C@](C)(N)[C@@H]2O1 [Compound 17B]	> 50
C#C[C@@]1(O)[C@@H]2OP(=O)(OCC[C@@H](OC)C(=O)OC(C)C)OC[C@H]2O[C@H]1n1ccc(=O)[nH]c1=O (stereo partly shown) [Compound 76]	> 50
C#C[C@@]1(O)[C@@H]2OP(=O)(OCC[C@H](C)C(=O)OC(C)C)OC[C@H]2O[C@H]1n1ccc(=O)[nH]c1=O (single isomer, unassigned) [Compound 7A2]	> 50
C#C[C@@]1(OC(=O)CCC)[C@@H]2O[P@@](=O)(OCC[C@@H](C)C(=O)OC(C)C)OC[C@H]2O[C@H]1n1ccc(=O)[nH]c1=O [Compound 83A1]	> 50
CCCCCOC(=O)C(C)CCO[P@]1(=O)OC[C@H]2O[C@@H](n3ccc(=O)[nH]c3=O)[C@](C)(N)[C@@H]2O1 (stereo partly shown) [Compound 79B]	> 50

SMILES	CC50 at 3 days [µM]
C#C[C@]1(C)[C@@H]2O[P@@](=O)(OCC(C)CCC(=O)OC(C)C)OC[C@H]2O[C@H]1n1ccc(=O)[nH]c1=O (stereo partly shown) [Compound 22A]	> 50
COC(=O)N[C@H](CO[P@]1(=O)OC[C@H]2O[C@@H](n3ccc(=O)[nH]c3=O)[C@](C)(C#N)[C@@H]2O1)C(=O)OC(C)C [Compound 41B]	> 50
C[C@@]1(N)[C@@H]2O[P@](=O)(OCCC3(C(=O)OC4CCCC4)CC3)OC[C@H]2O[C@H]1n1ccc(=O)[nH]c1=O [Compound 26B]	> 50
CC(C)OC(=O)C(CCO[P@@]1(=O)OC[C@H]2O[C@@H](n3cnc4c(N)ncnc43)[C@](C)(Cl)[C@@H]2O1)C(=O)OC(C)C [Compound 70A]	> 50
CC(=O)O[C@H](C(=O)OC(C)C)[C@@H](COP1(=O)OC[C@H]2O[C@@H](n3ccc(=O)[nH]c3=O)[C@](C)(N)[C@@H]2O1)OC(C)=O (stereo partly shown) [Compound 53B]	> 50
CC(C)OC(=O)C(C)(C)CO[P@@]1(=O)OC[C@H]2O[C@@H](n3ccc(=O)[nH]c3=O)[C@](C)(N)[C@@H]2O1 [Compound 15A]	> 50
C#C[C@@]1(O)[C@@H]2OP(=O)(OCCC(C)C(=O)OC3CCCC3)OC[C@H]2O[C@H]1n1ccc(=O)[nH]c1=O (single isomer, unassigned) [Compound 8A]	> 50
CC(C)OC(=O)C(C)CCOP1(=O)OC[C@H]2O[C@@H](n3ccc(=O)[nH]c3=O)[C@](C)(N)[C@@H]2O1 (stereo partly shown) [Compound 10A]	> 50
C#C[C@]1(C)[C@@H]2O[P@](=O)(OCC[C@H](OC(C)=O)C(=O)OC(C)C)OC[C@H]2O[C@H]1n1ccc(=O)[nH]c1=O [Compound 51B]	> 50
CC(C)OC(=O)[C@@H](C)CCO[P@]1(=O)OC[C@H]2O[C@@H](n3cnc4c(N)ncnc43)[C@](C)(N)[C@@H]2O1 [Compound 73B]	> 50
C#C[C@]1(C)[C@@H]2O[P@](=O)(OCC[C@H](C)C(=O)OC(C)C)OC[C@H]2O[C@H]1n1cnc2c(N)ncnc21 [Compound 72B]	> 50
CO[C@@H](CO[P@]1(=O)OC[C@H]2O[C@@H](n3ccc(=O)[nH]c3=O)[C@](C)(N)[C@@H]2O1)CC(=O)OC(C)C [Compound 63B]	> 50
CC(C)OC(=O)C(C)(C)CO[P@]1(=O)OC[C@H]2O[C@@H](n3ccc(=O)[nH]c3=O)[C@](C)(C#N)[C@@H]2O1 [Compound 16B]	> 50
C#C[C@]1(C)[C@@H]2OP(=O)(OCCC(C(=O)OC(C)C)C(=O)OC(C)C)OC[C@H]2O[C@H]1n1ccc(=O)[nH]c1=O (single isomer, unassigned) [Compound 36A]	> 50
C#C[C@]1(C)[C@@H]2O[P@@](=O)(OCCC(CC)C(=O)OC3CCCC3)OC[C@H]2O[C@H]1n1ccc(=O)[nH]c1=O (stereo partly shown) [Compound 30A]	> 50
